For one series, the target named is T1, cyclooxygenase-1 (COX-1) (Homo sapiens, UniProt P23219).
T1 construct: from tissue; host or cells: heparinized human whole blood
Nature of the series: Inhibition of cyclooxygenase-1 (COX-1) activity in human blood (thromboxane B2 levels after ionophore A23187). To be noted: for inhibition at 10 µM: read-out: % inhibition COX-1 (10 μM), 10 μM test compound; for % inhibition COX-1 (10 μM): 10 μM test compound. The series is classed as cell-based. The method, then:
(§1) Inhibition of cyclooxgenase-1 (COX-1) and cyclooxygenase-2 (COX-2) Activity in Human Blood
Heparinized human blood from healthy volunteers who had not taken non-steroidal anti-inflammatory drugs (NSAIDs) for a week, and neither alcohol nor xanthines 24 h before blood collection, is used. Blood is divided into two groups; one will be used to determine COX-1 activity and the other one for COX-2. The procedure to follow will be different in each case.
For COX-1, 12-mL tubes are used. 5 μL of the test compound (in DMSO solution; in duplicate) are placed in each tube. Aditionally two tubes for blanks and two tubes for controls containing 5 μL of DMSO are used. Next, 1 mL of blood is added to each tube and they are stirred. The tubes are placed in a thermostatized bath at 37° C. for 5 h. Then, 5 μL of 5 mM ionophore A23187 is added to each tube, except to the blanks, and tubes are incubated for 30 min more at 37° C. After this time, the tubes are placed in ice and 100 μL of a 100 mM EGTA solution is added to stop the reaction. 2.5 mL of methanol is added to each tube to reach a final concentration of 70%. The tubes are stirred and frozen at −70° C. till their use. The COX-1 activity is determined by measuring thromboxane B2 levels in the samples. Blood is defrozen and centrifuged at 2000 g for 10 min at 4° C. 1 mL of supematant is evaporated under nitrogen to dryness. The solid residue thus obtained is resuspended in 1 mL of saline and the thromboxane B2 levels in these samples are determined using a kit (Kit Thromboxane B2, Biotrak EIA system RPN220 Amershan), according to the manufacturer's instructions.

The target in the next series is T2, cyclooxygenase-2 (COX-2) (Homo sapiens, UniProt P35354).
T2 construct: 5 μL of LPS is also added (in order to induce COX-2 activy); from tissue; host or cells: heparinized human whole blood, LPS-stimulated, with aspirin added
T2 sequence (P35354 18-604): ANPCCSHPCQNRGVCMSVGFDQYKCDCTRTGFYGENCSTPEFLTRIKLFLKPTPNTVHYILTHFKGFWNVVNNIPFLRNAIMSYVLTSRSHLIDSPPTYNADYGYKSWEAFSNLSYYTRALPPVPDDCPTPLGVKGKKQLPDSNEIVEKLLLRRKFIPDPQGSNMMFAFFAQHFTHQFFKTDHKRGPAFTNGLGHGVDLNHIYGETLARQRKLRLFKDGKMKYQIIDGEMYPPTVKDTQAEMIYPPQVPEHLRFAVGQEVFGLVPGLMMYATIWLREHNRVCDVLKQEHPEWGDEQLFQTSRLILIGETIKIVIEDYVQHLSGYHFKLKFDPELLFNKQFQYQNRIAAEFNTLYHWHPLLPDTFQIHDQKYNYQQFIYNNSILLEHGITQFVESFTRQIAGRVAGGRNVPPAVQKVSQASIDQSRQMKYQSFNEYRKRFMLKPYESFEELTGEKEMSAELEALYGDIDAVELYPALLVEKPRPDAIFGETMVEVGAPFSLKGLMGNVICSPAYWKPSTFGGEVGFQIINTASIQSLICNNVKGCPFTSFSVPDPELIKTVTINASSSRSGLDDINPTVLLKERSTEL
Nature of the series: Inhibition of cyclooxygenase-2 (COX-2) activity in human blood (prostaglandin E2 levels after LPS, aspirin added). The series is classed as cell-based. Particulars: for inhibition at 10 µM: read-out: % inhibition COX-2 (10 μM), 10 μM test compound; for inhibition at 1 µM: read-out: % inhibition COX-2 (1 μM), 1 μM test compound; for % inhibition COX-2 (1 μM): 1 μM test compound; for % inhibition COX-2 (10 μM): 10 μM test compound. The method, then:
as §1
Blood is divided into two groups; one will be used to determine COX-1 activity and the other one for COX-2. The procedure to follow will be different in each case.
For COX-2, 3-mL tubes are prepared in duplicate containing 5 μL of the test compound (solution in DMSO) and 5 μL of vehicle in the case of blanks and controls. To each tube, 5 μL of a 2 mg/mL solution of aspirin in DMSO is also added (in order to inhibit COX-1 activity), and to all tubes except the blanks 5 μL of LPS is also added (in order to induce COX-2 activy). Finally, 1 mL of heparinized blood is added to each tube, and tubes are then stirred and placed in a thermostatized bath at 37° C. for 24 h. Then, tubes are centrifuged at 2000 g for 10 min at 4° C., the resulting plasma is collected and is frozen at −70° C. until use. COX-2 activity is determined by measuring prostaglandin E2 levels in the samples. The plasma stored at −70° C. is defrozen and prostaglandin E2 levels in these samples are determined using a kit (Kit Prostaglandin E2, Biotrak EIA system RPN222 Amershan), according to the manufacturer's instructions.

T1 sequence (P23219 24-599): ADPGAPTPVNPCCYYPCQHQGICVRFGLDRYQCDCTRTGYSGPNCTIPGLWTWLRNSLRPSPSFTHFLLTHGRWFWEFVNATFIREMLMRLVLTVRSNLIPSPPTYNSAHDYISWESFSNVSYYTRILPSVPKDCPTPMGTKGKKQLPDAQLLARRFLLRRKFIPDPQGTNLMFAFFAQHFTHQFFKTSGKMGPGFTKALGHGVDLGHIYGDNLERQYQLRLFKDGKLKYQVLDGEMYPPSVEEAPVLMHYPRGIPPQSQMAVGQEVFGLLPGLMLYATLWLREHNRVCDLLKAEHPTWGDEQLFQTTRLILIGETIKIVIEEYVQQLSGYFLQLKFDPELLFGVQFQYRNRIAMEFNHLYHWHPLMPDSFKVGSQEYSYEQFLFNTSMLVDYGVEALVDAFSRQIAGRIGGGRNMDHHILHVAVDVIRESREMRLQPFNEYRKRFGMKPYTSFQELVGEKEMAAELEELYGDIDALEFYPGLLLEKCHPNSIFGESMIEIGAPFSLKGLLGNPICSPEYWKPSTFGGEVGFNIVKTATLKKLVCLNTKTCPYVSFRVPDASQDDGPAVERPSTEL

On to `Cc1ccc(-c2c(Cl)ncn2-c2ccc(S(C)(=O)=O)cc2)cc1` [4(1), 4-Chloro-5-(4-methylphenyl)-1-(4-methylsulfonylphenyl)imidazole], for which the figures for the inhibition at 10 µM on cyclooxygenase-1 (COX-1) and on cyclooxygenase-2 (COX-2) were 34% and 100%, respectively.
As for `Cc1ccc(-c2c(Cl)ncn2-c2ccc(S(C)(=O)=O)cc2)cn1` [4(11), 4-Chloro-5-(6-methyl-3-pyridyl)-1-(4-methylsulfonylphenyl)imidazole], on cyclooxygenase-1 (COX-1), the inhibition (usually how much of the control response was suppressed) at 10 µM is 39.7%. In addition, at cyclooxygenase-2 (COX-2), the inhibition at 1 µM amounted to 58.4% and the inhibition at 10 µM turned out to be 100%.
For `CS(=O)(=O)c1ccc(-c2cnc(C#N)n2-c2ccc(F)cc2)cc1` [Example 10, 1-(4-Fluorophenyl)-5-(4-methylsulfonylphenyl)imidazol-2-carbonitrile] the same measures were 52.7%, 74% and 100%.
Take `Cc1ncn(-c2ccc(S(C)(=O)=O)cc2)c1-c1ccc(F)cc1` [Example 3, 5-(4-Fluorophenyl)-4-methyl-1-(4-methylsulfonylphenyl)imidazole]: the inhibition at 10 µM at cyclooxygenase-1 (COX-1) came to 8.3%; on cyclooxygenase-2 (COX-2), 86.5%.
In the case of `CS(=O)(=O)c1ccc(-n2cnc(Cl)c2-c2ccc(F)cc2)cc1` [Example 4, 4-Chloro-5-(4-fluorophenyl)-1-(4-methylsulfonylphenyl)imidazole], on cyclooxygenase-1 (COX-1), the inhibition at 10 µM stood at 37.8%. Also, on cyclooxygenase-2 (COX-2), the inhibition at 1 µM was determined as 89% and the inhibition at 10 µM was 100%.
In the case of `CS(=O)(=O)c1ccc(-n2cnc(Cl)c2-c2ccc(Cl)nc2)cc1` [4(16), 4-Chloro-5-(6-chloro-3-pyridyl)-1-(4-methylsulfonylphenyl)imidazole], the inhibition at 10 µM on cyclooxygenase-1 (COX-1) was found to be 42.5%; at cyclooxygenase-2 (COX-2), 100%.
With `Cc1ccc(-n2c(-c3ccc(S(C)(=O)=O)cc3)cnc2Cl)cc1` [Example 12, 2-Chloro-1-(4-methylphenyl)-5-(4-methylsulfonylphenyl)imidazole], the melting point – broadly, the temperature, or range, at which the solid turns liquid – is 156 to 160 °C. Also, the inhibition at 10 µM on cyclooxygenase-1 (COX-1) is 70.6%. Further, on cyclooxygenase-2 (COX-2), the inhibition at 1 µM was 83.6% and the inhibition at 10 µM worked out at 100%.
Consider `CS(=O)(=O)c1ccc(-n2cnc(Cl)c2-c2ccc(Cl)nc2Cl)cc1` [4(17)], for which the “% inhibition COX-1 (10 μM)” value at cyclooxygenase-1 (COX-1) is recorded as 22.7%. On cyclooxygenase-2 (COX-2), the “% inhibition COX-2 (1 μM)” value was determined as 65% and the “% inhibition COX-2 (10 μM)” value came to 86.3%.
Turning to `Cc1ccc(-c2c(Cl)ncn2-c2ccc(S(N)(=O)=O)cc2)cc1` [13(3), 4-[4-Chloro-5-(4-methylphonyl)imidazol-1-yl]benzenesulfonamide], the “% inhibition COX-1 (10 μM)” value at cyclooxygenase-1 (COX-1) was determined as 71.3%. In addition, at cyclooxygenase-2 (COX-2), the “% inhibition COX-2 (1 μM)” value is reported as 76.1% and the “% inhibition COX-2 (10 μM)” value is recorded as 100%.
As for `CS(=O)(=O)c1ccc(-n2cnc(Cl)c2-c2ccccc2)cc1` [4(3), 4-Chloro-1-(4-methylsulfonylphenyl)-5-phenylimidazole], the inhibition at 10 µM at cyclooxygenase-1 (COX-1) worked out at 47.9%. At cyclooxygenase-2 (COX-2), the inhibition at 1 µM came out at 82.6% and the inhibition at 10 µM is 96%.

The values above are taken from US6838476B1, “Imidazoles with anti-inflammatory activity” (J. Uriach & Cia, SA, priority 1998, dated 2005).
